Test: xn = mol fraction of the nth substance listed

O=C(O)C(Cl)(Cl)Cl + C[N+](C)(C)CCO.[Cl-]
101 kPa, x2 = 0.333
Settings	viscosity [mPa·s]
293.15 K	645.9
298.15 K	435
303.15 K	302.5
308.15 K	216.1
313.15 K	158.7
318.15 K	119.2
323.15 K	91.41

O=C(O)[C@H](O)[C@@H](O)C(=O)O + C[N+](C)(C)CCO.[Cl-]
viscosity [mPa·s]
Settings	303 K	313 K	313.2 K	323 K
101 kPa, x2 = 0.5	1281000	240000	–	73300
101.3 kPa, x2 = 0.669	–	–	6790	–

CC[N+](=O)[O-] + Cc1cc(C)cc(C)c1
293.15 K, 101.33 kPa
Settings	viscosity [mPa·s]
x1 = 0.0912	0.69
x1 = 0.1908	0.685
x1 = 0.2974	0.68
x1 = 0.3871	0.675
x1 = 0.5179	0.669
x1 = 0.6112	0.665
x1 = 0.6912	0.665
x1 = 0.7813	0.669
x1 = 0.8874	0.671

CCCCN + Cc1ccc(C)cc1
303.15 K, 101 kPa
Settings	viscosity [mPa·s]
x1 = 0.0795	0.545
x1 = 0.1507	0.53
x1 = 0.2545	0.511
x1 = 0.3628	0.494
x1 = 0.4612	0.481
x1 = 0.5562	0.471
x1 = 0.6469	0.464
x1 = 0.7338	0.457
x1 = 0.8144	0.451
x1 = 0.8979	0.448
x1 = 0.9456	0.444

CC[N+](=O)[O-] + Cc1ccc(C)cc1
293.15 K, 101.33 kPa
Settings	viscosity [mPa·s]
x1 = 0.0968	0.633
x1 = 0.1917	0.629
x1 = 0.3	0.627
x1 = 0.4039	0.626
x1 = 0.4933	0.626
x1 = 0.6083	0.629
x1 = 0.6994	0.633
x1 = 0.7938	0.644
x1 = 0.9011	0.66

CCCCN + Cc1cccc(C)c1
303.15 K, 101 kPa
Settings	viscosity [mPa·s]
x1 = 0.0824	0.525
x1 = 0.1495	0.516
x1 = 0.2739	0.497
x1 = 0.387	0.484
x1 = 0.4543	0.476
x1 = 0.5525	0.469
x1 = 0.6484	0.462
x1 = 0.7553	0.457
x1 = 0.816	0.453
x1 = 0.8978	0.448
x1 = 0.9469	0.445

CCCCN + Cc1ccccc1
303.15 K, 101 kPa
Settings	viscosity [mPa·s]
x1 = 0.0685	0.51
x1 = 0.1474	0.497
x1 = 0.2553	0.485
x1 = 0.328	0.474
x1 = 0.4247	0.464
x1 = 0.5197	0.457
x1 = 0.6107	0.453
x1 = 0.6993	0.449
x1 = 0.7946	0.446
x1 = 0.8819	0.445
x1 = 0.9407	0.444
x2 = 0.1475	0.4405
x2 = 0.2127	0.441
x2 = 0.2918	0.439
x2 = 0.3842	0.4402
x2 = 0.5074	0.4449
x2 = 0.6083	0.4543
x2 = 0.7064	0.4677
x2 = 0.8686	0.4956

CCCCN + Cc1ccccc1C
303.15 K, 101 kPa
Settings	viscosity [mPa·s]
x1 = 0.0811	0.648
x1 = 0.1509	0.624
x1 = 0.2681	0.587
x1 = 0.3574	0.56
x1 = 0.4598	0.535
x1 = 0.546	0.518
x1 = 0.6419	0.499
x1 = 0.7306	0.484
x1 = 0.8169	0.469
x1 = 0.8974	0.457
x1 = 0.9503	0.45

CCCCN + ClC(Cl)(Cl)Cl
viscosity [mPa·s], 101 kPa
Settings	293.15 K	298.15 K	303.15 K	308.15 K
x1 = 0.1017	0.924	0.86	0.806	0.76
x1 = 0.1975	0.879	0.818	0.766	0.723
x1 = 0.2974	0.832	0.774	0.726	0.684
x1 = 0.3676	0.799	0.743	0.697	0.657
x1 = 0.4895	0.742	0.69	0.647	0.61
x1 = 0.5536	0.712	0.661	0.621	0.585
x1 = 0.6318	0.675	0.627	0.589	0.555
x1 = 0.6708	0.657	0.61	0.573	0.54
x1 = 0.7779	0.606	0.563	0.53	0.499
x1 = 0.8299	0.582	0.54	0.508	0.479
x1 = 0.912	0.543	0.504	0.475	0.447

CC[N+](=O)[O-] + ClC(Cl)(Cl)Cl
viscosity [mPa·s], 101 kPa
Settings	x1 = 0.1	x1 = 0.2	x1 = 0.3	x1 = 0.4	x1 = 0.5	x1 = 0.6	x1 = 0.7	x1 = 0.8	x1 = 0.9
303.15 K	0.7767	0.7448	0.7173	0.6971	0.6667	0.6402	0.6152	0.5924	0.5824
308.15 K	0.7408	0.6988	0.6673	0.6509	0.6305	0.6024	0.5769	0.5634	0.5522
318.15 K	0.6485	0.6213	0.597	0.5764	0.5533	0.5327	0.514	0.4996	0.4945

CCCCN + ClC(Cl)Cl
viscosity [mPa·s], 101 kPa
Settings	293.15 K	298.15 K	303.15 K	308.15 K
x1 = 0.0601	0.59	0.555	0.529	0.516
x1 = 0.1276	0.603	0.567	0.535	0.525
x1 = 0.1585	0.61	0.571	–	0.529
x1 = 0.2301	0.623	0.583	0.554	0.535
x1 = 0.2658	0.631	0.587	0.558	0.538
x1 = 0.336	0.641	0.598	–	0.541
x1 = 0.4049	0.647	0.6	0.567	0.543
x1 = 0.4341	0.649	0.599	0.568	0.541
x1 = 0.4542	0.649	0.6	–	0.54
x1 = 0.4991	0.645	0.598	0.561	0.536
x1 = 0.6045	0.63	0.585	0.548	0.524
x1 = 0.6156	0.627	0.58	–	0.52
x1 = 0.6443	0.621	0.573	0.54	0.516
x1 = 0.7093	0.604	0.559	0.526	0.503
x1 = 0.7325	0.596	0.552	0.52	0.496
x1 = 0.8611	0.556	0.514	0.487	0.46
x1 = 0.9302	0.532	0.492	0.463	0.437

CCCC(=O)OCC + Clc1ccccc1
viscosity [mPa·s], 101.3 kPa
Settings	308.15 K	318.15 K
x1 = 0.0537	0.646	0.596
x1 = 0.0994	0.637	0.588
x1 = 0.1869	0.622	0.574
x1 = 0.357	0.599	0.552
x1 = 0.4049	0.593	0.548
x1 = 0.4939	0.585	0.541
x1 = 0.5929	0.579	0.535
x1 = 0.6953	0.574	0.532
x1 = 0.7941	0.573	0.532
x1 = 0.9017	0.573	0.534
x1 = 0.9369	0.574	0.535

CCCCN + NC1CCCCC1
298.15 K, 101 kPa
Settings	viscosity [mPa·s]
x2 = 0.0757	0.6805
x2 = 0.1557	0.8796
x2 = 0.2401	1.111
x2 = 0.3296	1.33
x2 = 0.4244	1.548
x2 = 0.5252	1.774
x2 = 0.6324	1.954
x2 = 0.7468	2.035
x2 = 0.8691	1.976

O=[N+]([O-])[O-].[Ag+] + Nc1cccc(Cl)c1
298.15 K, 101 kPa
Settings	viscosity [mPa·s]
x1 = 0.00059	3.52
x1 = 0.0014	3.57
x1 = 0.00381	3.67
x1 = 0.008857	3.92
x1 = 0.02337	4.83
x1 = 0.06044	9.18

NCCC(=O)O + O
viscosity [mPa·s], 100 kPa
Settings	x1 = 0.000358	x1 = 0.000542	x1 = 0.00072	x1 = 0.000808	x1 = 0.00108	x1 = 0.00126	x1 = 0.00144	x1 = 0.0018
293.15 K	1.006	1.008	1.009	1.011	1.014	1.016	1.018	1.022
298.15 K	0.894	0.894	0.896	0.898	0.901	0.902	0.905	0.908
303.15 K	0.8	0.8	0.802	0.804	0.805	0.807	0.809	0.812
308.15 K	0.721	0.721	0.723	0.725	0.725	0.728	0.729	0.732
313.15 K	0.653	0.653	0.655	0.657	0.657	0.659	0.66	0.663

O=C([O-])CC(O)(CC(=O)[O-])C(=O)[O-].[K+].[K+].[K+] + O
viscosity [mPa·s], 101 kPa
Settings	293.15 K	298.15 K	303.15 K	308.15 K
x1 = 0.0025	1.072	0.946	0.844	0.758
x1 = 0.0089	1.265	1.123	1.003	0.908
x1 = 0.0177	1.478	1.32	1.187	1.07
